Patent US9296745B2, “Diacylglycerol acyltransferase 2 inhibitors” (Pfizer Inc., priority 2012, dated 2016)

Biological target: Human DGAT2 (hDGAT2) (Homo sapiens (Human), UniProt Q96PD7)
Assay: In vitro DGAT2 assay, IC50 determination with hDGAT2 membrane fraction
Format: biochemical
Conditions: geometric mean; background for complete inhibition of DGAT2 obtained with 50 μM (1R,2R)-2-({3′-Fluoro-4′-[(6-fluoro-1,3-benzothiazol-2-yl)amino]-1,1′-biphenyl-4-yl}carbonyl)cyclopentanecarboxylic acid; read-out: DGAT2 IC50
Protocol: Recombinant baculovirus for the FLAG-tagged hDGAT2 was generated in SF9 insect cells using Bac-to-Bac baculovirus expression system (Invitrogen) according to the manufacturer's protocol. For the expression of hDGAT2, SF9 cells (20 L) grown in Sf900II media were infected with hDGAT2 baculovirus at a multiplicity of infection of 1 in a Wave Bioreactor System 20/50P wave bag (GE Healthcare). After 40 hours of infection, the cells were then harvested by centrifugation at 5,000×g. The cell pellets were washed by resuspending in phosphate buffered saline (PBS) and collected by centrifugation at 5,000×g. The cell paste was flash frozen in liquid N2 and stored at −80° C. until needed. All operations below were at 4° C. unless otherwise noted. The cells were resuspended in lysis buffer (50 mM Tris-HCl, pH 8.0, 250 mM sucrose) including 1 mM ethylenediaminetetraacetic acid (EDTA) and the complete protease inhibitor cocktail (Roche Diagnostics) at a ratio of 3 ml buffer per 1 g cell paste. The cells were lysed by dounce homogenizer. The cell debris was removed by centrifugation at 1,000×g for 20 min, and the supernatant was centrifuged at 100,000×g for 1 hour. The resulting pellet was rinsed three times by filling ultracentrifuge tubes to the top with ice cold PBS before decanting. The washed pellet was resuspended with gentle stirring for 1 hour in lysis buffer containing 8 mM 3-[(3-cholamidopropyl)dimethylammonio]-1-propanesulfonate (CHAPS) at a ratio of 1 mL buffer per 1 g of original cell paste and centrifuged again at 100,000×g for 1 hour. The resulting supernatant (hDGAT2 membrane fraction) was aliquotted, flash frozen in liquid N2, and stored at −80° C. until use.
To 1 μL of compounds dissolved in 100% DMSO and spotted at the bottom of each well, 5 μL of 0.04% bovine serum albumin (BSA) (fatty acid free, Sigma Aldrich) was added and the mixture was incubated at room temperature for 20 minutes. To this mixture, 10 μL of hDGAT2 membrane fraction (0.01 mg/mL) diluted in 100 mM Hepes-NaOH, pH 7.4, 20 mM MgCl2 containing 200 nM methyl arachidonyl fluorophosphonate (Cayman Chemical; dried from ethyl acetate stock solution under argon gas and dissolved in DMSO as 5 mM stock) was added. […] The reaction mixtures were incubated at room temperature for 40 min and the reactions were stopped by addition of 5 μL of 1% H3PO4. After the addition of 45 μL MicroScint-E (Perkin-Elmer), plates were sealed with Top Seal-A covers (Perkin-Elmer) and phase partitioning of substrates and products was achieved using a HT-91100 microplate orbital shaker (Big Bear Automation, Santa Clara, Calif.). Plates were centrifuged at 2,000×g for 1 min in an Allegra 6R Centrifuge (Beckman Coulter) and then were sealed again with fresh covers before reading in a 1450 Microbeta Wallac Trilux Scintillation Counter (Perkin Elmer). DGAT2 activity was measured by quantifying the generated product [^14C]tridecanoylglycerol in the upper organic phase.
Inhibitors were tested at eleven different concentrations to generate IC50 values for each compound. […] Results are reported as geometric mean IC50 values.

Human DGAT2 (hDGAT2), sequence (Q96PD7 whole entry): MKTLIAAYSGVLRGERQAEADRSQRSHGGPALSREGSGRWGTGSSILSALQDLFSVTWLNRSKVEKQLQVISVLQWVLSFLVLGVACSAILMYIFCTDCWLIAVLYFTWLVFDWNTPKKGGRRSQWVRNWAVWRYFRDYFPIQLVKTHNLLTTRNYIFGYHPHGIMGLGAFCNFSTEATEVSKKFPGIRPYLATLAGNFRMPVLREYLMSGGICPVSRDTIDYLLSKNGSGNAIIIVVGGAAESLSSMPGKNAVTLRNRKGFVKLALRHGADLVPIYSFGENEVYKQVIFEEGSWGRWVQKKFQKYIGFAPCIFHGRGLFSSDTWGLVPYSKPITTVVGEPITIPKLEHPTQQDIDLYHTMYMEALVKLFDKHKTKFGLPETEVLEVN

SMILES | IC50
c1cc(-c2nc3ccc(N4CCCC(c5nnc6n5CCC6)C4)nc3[nH]2)nc(C2CC2)c1 (racemic) [Example 169, 2-(6-Cyclopropylpyridin-2-yl)-5-(3-(6,7-dihydro-5H-pyrrolo[2,1-c][1,2,4]triazol-3-yl)piperidin-1-yl)-3H-imidazo[4,5-b]pyridine] | 292 nM
CC(C)COC(=O)N1CCCC(c2nc3ccc(N4CCC[C@@H](C(=O)N5CCCC5)C4)nc3[nH]2)C1 (stereo in doubt) [Example 61, (R)-iso-Butyl 3-(5-(3-(pyrrolidine-1-carbonyl)piperidin-1-yl)-3H-imidazo[4,5-b]pyridine-2-yl)piperidine-1-carboxylate] | 86.4 nM
O=C([C@@H]1CCCN(c2ccc3nc(-c4cccc(OC(F)(F)F)c4)[nH]c3n2)C1)N1CCCC1 [Example 1, (R)-Pyrrolidin-1-yl(1-(2-(3-(trifluoromethoxy)phenyl)-3H-imidazo[4,5-b]pyridin-5-yl)piperidin-3-yl)methanone] | 1.7 nM
CC(C)Cc1csc(-c2nc3ccc(N4CCC[C@@H](C(=O)N5CCCC5)C4)nc3[nH]2)n1 [Example 2, (R)-(1-(2-(4-Isobutylthiazol-2-yl)-3H-imidazo[4,5-b]pyridin-5-yl)piperidin-3-yl)(pyrrolidin-1-yl)methanone] | 2.71 nM
O=C([C@@H]1CCCN(c2ccc3nc(-c4cccc(-n5cccn5)c4)[nH]c3n2)C1)N1CCCC1 [Example 3, (R)-(1-(2-(3-(1H-Pyrazol-1-yl)phenyl)-3H-imidazo[4,5-b]pyridin-5-yl)piperidin-3-yl)(pyrrolidin-1-yl)methanone] | 4.82 nM
CC(C)c1csc(-c2nc3ccc(N4CCC[C@@H](C(=O)N5CCCC5)C4)nc3[nH]2)n1 [Example 4, (R)-(1-(2-(4-Isopropylthiazol-2-yl)-3H-imidazo[4,5-b]pyridin-5-yl)piperidin-3-yl)(pyrrolidin-1-yl)methanone] | 6.64 nM
Cc1cccc(-c2nc3ccc(N4CCC[C@@H](C(=O)N5CCCC5)C4)nc3[nH]2)c1 [Example 5, (R)-Pyrrolidin-1-yl(1-(2-m-tolyl-3H-imidazo[4,5-b]pyridin-5-yl)piperidin-3-yl)methanone] | 8.24 nM
O=C([C@@H]1CCCN(c2ccc3nc(-c4cccc(-c5cnco5)c4)[nH]c3n2)C1)N1CCCC1 [Example 6, (R)-(1-(2-(3-(Oxazol-5-yl)phenyl)-3H-imidazo[4,5-b]pyridin-5-yl)piperidin-3-yl)(pyrrolidin-1-yl)methanone] | 11.5 nM
O=C([C@@H]1CCCN(c2ccc3nc(-c4cncc(Cl)c4)[nH]c3n2)C1)N1CCCC1 [Example 7, (R)-(1-(2-(5-Chloropyridin-3-yl)-3H-imidazo[4,5-b]pyridin-5-yl)piperidin-3-yl)(pyrrolidin-1-yl)methanone] | 16.3 nM
CNS(=O)(=O)c1cccc(-c2nc3ccc(N4CCC[C@@H](C(=O)N5CCCC5)C4)nc3[nH]2)c1 [Example 8, (R)-N-Methyl-3-(5-(3-(pyrrolidine-1-carbonyl)piperidin-1-yl)-3H-imidazo[4,5-b]pyridin-2-yl)benzenesulfonamide] | 21.1 nM
O=C([C@@H]1CCCN(c2ccc3nc(-c4cnn(-c5ccccc5)c4)[nH]c3n2)C1)N1CCCC1 [Example 9, (R)-(1-(2-(1-Phenyl-1H-pyrazol-4-yl)-3H-imidazo[4,5-b]pyridin-5-yl)piperidin-3-yl)(pyrrolidin-1-yl)methanone] | 22.1 nM
O=C([C@@H]1CCCN(c2ccc3nc(-c4ccnc(N5CCCC5)n4)[nH]c3n2)C1)N1CCCC1 [Example 10, (R)-Pyrrolidin-1-yl(1-(2-(2-(pyrrolidin-1-yl)pyrimidin-4-yl)-3H-imidazo[4,5-b]pyridin-5-yl)piperidin-3-yl)methanone] | 29.2 nM
Cc1csc(-c2nc3ccc(N4CCC[C@@H](C(=O)N5CCCC5)C4)nc3[nH]2)n1 [Example 11, (R)-(1-(2-(4-Methylthiazol-2-yl)-3H-imidazo[4,5-b]pyridin-5-yl)piperidin-3-yl)(pyrrolidin-1-yl)methanone] | 35 nM
O=C([C@@H]1CCCN(c2ccc3nc(-c4cccc5ccnn45)[nH]c3n2)C1)N1CCCC1 [Example 12, (R)-(1-(2-(Pyrazolo[1,5-a]pyridin-7-yl)-3H-imidazo[4,5-b]pyridin-5-yl)piperidin-3-yl)(pyrrolidin-1-yl)methanone] | 54.7 nM
N#Cc1ccc(-c2nc3ccc(N4CCC[C@@H](C(=O)N5CCCC5)C4)nc3[nH]2)cc1 [Example 13, (R)-4-(5-(3-(Pyrrolidine-1-carbonyl)piperidin-1-yl)-3H-imidazo[4,5-b]pyridin-2-yl)benzonitrile] | 63.6 nM
CC(C)(O)c1cc(-c2nc3ccc(N4CCC[C@@H](C(=O)N5CCCC5)C4)nc3[nH]2)ccn1 [Example 14, (R)-(1-(2-(2-(2-Hydroxypropan-2-yl)pyridin-4-yl)-3H-imidazo[4,5-b]pyridin-5-yl)piperidin-3-yl)(pyrrolidin-1-yl)methanone] | 72.8 nM
O=C([C@@H]1CCCN(c2ccc3nc(-c4ccnc(NC5CC5)n4)[nH]c3n2)C1)N1CCCC1 [Example 15, (R)-(1-(2-(2-(Cyclopropylamino)pyrimidin-4-yl)-3H-imidazo[4,5-b]pyridin-5-yl)piperidin-3-yl)(pyrrolidin-1-yl)methanone] | 89.6 nM
N#Cc1cncc(-c2nc3ccc(N4CCC[C@@H](C(=O)N5CCCC5)C4)nc3[nH]2)c1 [Example 16, (R)-5-(5-(3-(Pyrrolidine-1-carbonyl)piperidin-1-yl)-3H-imidazo[4,5-b]pyridin-2-yl)nicotinonitrile] | 102 nM
Cc1nc(-c2nc3ccc(N4CCC[C@@H](C(=O)N5CCCC5)C4)nc3[nH]2)cs1 [Example 17, (R)-(1-(2-(2-Methylthiazol-4-yl)-3H-imidazo[4,5-b]pyridin-5-yl)piperidin-3-yl)(pyrrolidin-1-yl)methanone] | 118 nM
O=C([C@@H]1CCCN(c2ccc3nc([C@H]4C[C@H]4c4ccccc4)[nH]c3n2)C1)N1CCCC1 [Example 18, ((R)-1-(2-((1S,2R)-2-Phenylcyclopropyl)-3H-imidazo[4,5-b]pyridin-5-yl)piperidin-3-yl)(pyrrolidin-1-yl)methanone] | 196 nM
O=C([C@@H]1CCCN(c2ccc3nc(-c4ccc5nccn5c4)[nH]c3n2)C1)N1CCCC1 [Example 19, (R)-(1-(2-(Imidazo[1,2-a]pyridin-6-yl)-3H-imidazo[4,5-b]pyridin-5-yl)piperidin-3-yl)(pyrrolidin-1-yl)methanone] | 208 nM
Cn1cc(Cl)c(-c2nc3ccc(N4CCC[C@@H](C(=O)N5CCCC5)C4)nc3[nH]2)n1 [Example 20, (R)-(1-(2-(4-Chloro-1-methyl-1H-pyrazol-3-yl)-3H-imidazo[4,5-b]pyridin-5-yl)piperidin-3-yl)(pyrrolidin-1-yl)methanone] | 221 nM
O=C([C@@H]1CCCN(c2ccc3nc(-c4ccccc4F)[nH]c3n2)C1)N1CCCC1 [Example 21, (R)-(1-(2-(2-Fluorophenyl)-3H-imidazo[4,5-b]pyridin-5-yl)piperidin-3-yl)(pyrrolidin-1-yl)methanone] | 346 nM
CC(C)(c1ccccc1)c1nc2ccc(N3CCC[C@@H](C(=O)N4CCCC4)C3)nc2[nH]1 [Example 22, (R)-(1-(2-(2-Phenylpropan-2-yl)-3H-imidazo[4,5-b]pyridin-5-yl)piperidin-3-yl)(pyrrolidin-1-yl)methanone] | 357 nM
CC(C)c1cccc(-c2nc3ccc(N4CCC[C@@H](C(=O)N5CCCC5)C4)nc3[nH]2)c1O [Example 23, (R)-(1-(2-(2-Hydroxy-3-isopropylphenyl)-3H-imidazo[4,5-b]pyridin-5-yl)piperidin-3-yl)(pyrrolidin-1-yl)methanone] | 432 nM
CC(C)(C)c1nc2ccc(N3CCC[C@@H](C(=O)N4CCCC4)C3)nc2[nH]1 [Example 24, (R)-(1-(2-tert-Butyl-3H-imidazo[4,5-b]pyridin-5-yl)piperidin-3-yl)(pyrrolidin-1-yl)methanone] | 731 nM
